The values that follow come from paper PMC10907358, “Identification of oleic acid as an endogenous ligand of GPR3” (Cell Research, 2024).

“Also recorded” adds a separate entry of the source.

Experiment [1] deals with T1, GPR3 (Homo sapiens, UniProt P46089).
T1 construct: expressed in transfected cells
In words: Inhibition of OA-induced GPR3 activation, GloSensor cAMP assay in GPR3 stably expressing AD293 cell line. In kind it is cell-based. As to conditions: OA concentration fixed at 300 μM; read-out: IC50 of OA-induced receptor activation. The protocol: (§1) The GloSensor cAMP assay was performed according to the instructions of Promega. AD293 cells were split into 6-well plate (300,000 cells/mL) and then transfected with the pGloSensor™-22F cAMP plasmid and pcDNA3-GPR3 plasmid by Lipofectamine 2000, at a ratio of 2:1 (μL:μg). 24 h after transfection, cells were split into 96-well plate for another 24 h incubation. After removal of cell medium, 90 μL of 3% v/v (the GloSensor cAMP reagent vs serum-free medium) substrate was added into each well. After 2 h incubation at RT, background measurements were taken, and then 10 μL 10× stock compounds were added for the second measurements of ligand activation via EnVision 2105 (PerkinElmer). Relative cAMP level was calculated by the cAMP level after addition of ligand divided by the cAMP level before addition of ligand (basal level). Stock FAs (i.e., 10–50 mM) were solubilized in DMSO, then diluted in cell culture buffer to designated concentrations and sonicated to ensure that they were evenly distributed in the buffer before being added to cells.
AD293 cells were split into 6-well plate (300,000 cells/mL), and then transfected with the pGloSensor™-22F cAMP plasmid and the pcDNA6-GPR3-3× FLAG plasmid (WT receptor or the mutants, F120A^3.36, W260A^6.48, L283F^7.39, A201W^5.46, Y280A^7.36, H96A^2.60 and H96A^2.60/Y280A^7.36) by Lipofectamine 2000 at a ratio of 2:1 (μL:μg). […]
In general terms: Changes in cAMP serve as a functional read-out for many G protein-coupled receptors.

Experiment [2] addresses T1, GPR3. In words: GloSensor cAMP assay in GPR3 stably expressing AD293 cell line (agonist mode). In kind it is cell-based. As to conditions: for cAMP induction activity (in words) / EC50: GPR3 stably expressing AD293; for maximum response: Table S2, relative cAMP level, at 500 μM (FA 12:0, 16:1, 18:0, OEA 18:1, OLM 18:1), 450 μM (FA 18:1), 400 μM (FA 16:0), 300 μM (FA 22:0, 18:2), 100 μM (FAME 18:0, FAEE 18:0, lysophospholipids), 3 μM (LTB4); for EC50: cAMP induction. The protocol: as §1
AD293 cells were split into 6-well plate (300,000 cells/mL), and then transfected with the pGloSensor™-22F cAMP plasmid and the pcDNA6-GPR3-3× FLAG plasmid (WT receptor or the mutants, F120A^3.36, W260A^6.48, L283F^7.39, A201W^5.46, Y280A^7.36, H96A^2.60 and H96A^2.60/Y280A^7.36) by Lipofectamine 2000 at a ratio of 2:1 (μL:μg). Geneticin (2 mg/mL) and blasticidin (20 μg/mL) were used to select colonies that stably express both GPR3 and GloSensor 22F. The cell culture medium containing antibiotics was changed every 2 days till well-separated colonies appeared. Then individual single colony was picked by a small piece of sterilized filter paper soaked with trypsin and separately cultured in a single well of 24-well plate. At least 24 candidate colonies were selected for each mutant and WT. After several days of culture, each colony was triplicated. One of the triplicates was used for western blot analysis, another for the GloSensor cAMP assay, and the remaining one was stored for staining. The colonies with top scores in both expression (western blot) and functional assay were selected as the representative colonies for each mutant or WT for further analysis.

A further experiment deals with T2, GPR6 (Homo sapiens, UniProt P46095).
T2 construct: FLAG; expressed in transfected cells
T2 sequence (P46095 whole entry, species assumed): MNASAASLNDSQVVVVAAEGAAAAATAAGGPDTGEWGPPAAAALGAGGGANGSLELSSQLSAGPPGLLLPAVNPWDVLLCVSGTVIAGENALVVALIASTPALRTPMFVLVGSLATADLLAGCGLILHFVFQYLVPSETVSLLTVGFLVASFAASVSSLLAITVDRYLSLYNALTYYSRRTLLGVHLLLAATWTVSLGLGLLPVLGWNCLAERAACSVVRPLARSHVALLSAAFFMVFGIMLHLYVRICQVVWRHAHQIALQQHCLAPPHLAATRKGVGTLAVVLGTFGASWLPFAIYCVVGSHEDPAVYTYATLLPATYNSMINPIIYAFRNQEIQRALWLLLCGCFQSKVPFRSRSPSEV
The experiment can be described thus: GloSensor cAMP assay in GPR6 stably expressing AD293 cell line. Type of experiment: cell-based. The following applies: lipid concentration 300 μM.

Experiment [3] deals with Gs/cAMP/PKA signaling in iBAT. In words: Ex vivo iBAT of WT mice, p-PKA substrate immunoblot. In kind it is cell-based, mouse. The following applies: WT iBAT at 4 °C; lipid 1 mM (OA also 5 mM), up to 4 h. The protocol: iBAT was isolated from C57BL/6N mice at 4-6 weeks old and cut into 10 mg pieces. […] Another group of iBAT pieces were incubated in DMEM medium at 4 °C, and treated with different doses of OA (0 mM, 1 mM, 5 mM) for 4 h. OA (Sigma, O1008) was dissolved in serum-free DMEM (Gibco, high glucose, 12100046) by using an ultrasonic cleaner at 40 °C for 10 min.

A further experiment has as its system GPR120. Also on record: method as in PMID 36862765. As to conditions: cited from earlier work.

T1 sequence (P46089 whole entry): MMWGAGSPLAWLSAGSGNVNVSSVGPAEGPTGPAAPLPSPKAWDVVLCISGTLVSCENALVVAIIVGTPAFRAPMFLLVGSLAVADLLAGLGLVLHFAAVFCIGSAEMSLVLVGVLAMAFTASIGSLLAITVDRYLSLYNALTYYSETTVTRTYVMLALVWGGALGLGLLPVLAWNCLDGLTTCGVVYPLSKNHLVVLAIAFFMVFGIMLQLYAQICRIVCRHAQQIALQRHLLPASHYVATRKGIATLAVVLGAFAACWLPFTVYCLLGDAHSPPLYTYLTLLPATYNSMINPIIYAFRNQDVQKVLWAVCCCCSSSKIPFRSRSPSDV

By IC50 is commonly meant the concentration at which inhibition is half-maximal. In the case of `CC(C)Oc1cc(Cl)ccc1CNc1cc(-c2ccccc2)nc2ncnn12` [AF64394], the half-maximal inhibitory concentration (IC50) on GPR3 [1] worked out at 0.171 µM.
For the compound `CCCCCCCCCCCCCCCCCCCCCC(=O)O` [BEH, behenic acid], at GPR3 [2], the “cAMP induction activity (in words)” value is “no activity at all; also recorded: failed to activate the receptor” and the maximum response is 1.0.
`c1ccc2c(c1)[I+]c1ccccc1-2` [DPI, diphenyleneiodonium chloride]: the “Emax compared to Emax of OA” value at GPR3 [2] (cAMP assay) is on record as “higher Emax”.
As for `CCCCCCCCCCCCCCCCCC(=O)OCC` [ETS, ethyl stearate], at GPR3 [2], the “cAMP induction activity (in words)” value was “completely abolished receptor activation; also recorded: failed to activate the receptor” and the maximum response turned out to be 0.6.
Broadly, the EC50 is the midpoint of the concentration-response curve. Consider `CCCCCCCCCCCC(=O)O` [LAU, lauric acid], for which, on GPR3 [2], the “cAMP induction activity (in words)” value is reported as “fully activate GPR3”, the maximum response turned out to be 204.5 and the concentration giving a half-maximal response (EC50) was 320 µM. In addition, the “Emax compared to Emax of OA” value on GPR3 [2] (cAMP assay) was “higher Emax than OA”. Besides, the “GPR6 activation (in words)” value on GPR6 was “strongly activated GPR6”.
Consider `CCCCC/C=C\C/C=C\CCCCCCCC(=O)O` [LIN, Linoleic acid], for which, on GPR3 [2], the “cAMP induction activity (in words)” value is “failed to activate the receptor; also recorded: almost no activity” and the maximum response came to 2.9. Further, in experiment [3], the “Gs/cAMP/PKA signaling (phosphorylation of PKA substrates)” value is recorded as “neither STE nor LIN induced Gs/cAMP/PKA signaling”. Also, the EC50 in the experiment with GPR120 is 57.4 µM.
For `CCCCC/C=C\C[C@@H](O)/C=C/C=C/C=C\[C@@H](O)CCCC(=O)O` [LTB4, leukotriene B4], at GPR3 [2], the “cAMP induction activity (in words)” value was “failed to activate GPR3” and the maximum response is given as 0.8.
The corresponding values for `CCCCCCCCCCCCCCCCCC(=O)OC` [MES, methyl stearate] are “completely abolished receptor activation; also recorded: failed to activate the receptor” and 0.9.
At GPR3 [2], `CCCCCCCC/C=C\CCCCCCCC(=O)NCCO` [OEA, oleoylethanolamide] displayed a maximum response of 60.9 and an EC50 of 336 µM. The “Emax compared to Emax of OA” value at GPR3 [2] (cAMP assay) is listed as “half of the Emax of OA”.
The corresponding values for `CCCCCCCC/C=C\CCCCCCCC(N)=O` [OLM, Oleamide] are 75.1, 334 µM and “half of the Emax of OA”.
The corresponding values for `CCCCCCCCCCCCCCCC(=O)O` [PAL, palmitic acid] are 118.7, 311 µM and “slightly lower Emax than OA”.
At GPR3 [2], `CCCCCC/C=C\CCCCCCCC(=O)O` [PML, palmitoleic acid] came in with a maximum response of 61.8 and an EC50 of 328 µM. For the same compound, the “Emax / receptor activation compared to PAL” value at GPR3 [2] (cAMP assay) is recorded as “half of the Emax of PAL; also recorded: substantially decreased receptor activation compared to PAL”. Further, the “GPR6 activation (in words)” value on GPR6 is “strongly activated GPR6”.
`CCCCCCCCCCCCC/C=C/[C@@H](O)[C@@H](N)COP(=O)(O)O` [S1P, sphingosine-1-phosphate]: on GPR3 [2], the “cAMP induction activity (in words)” value is recorded as “none of the lysophospholipids that we tested exhibited cAMP induction activity” and the maximum response stood at 0.6.
Turning to `CCCCCCCCCCCCCCCCCC(=O)O` [STE, stearic acid], on GPR3 [2], the “cAMP induction activity (in words)” value was “weak activity”, the maximum response is given as 44.8 and the concentration for a half-maximal effect (EC50) came out at 361 µM. For the same compound, on GPR3 [2] (cAMP assay), the “Emax compared to Emax of OA” value is “about 1/3”. For the same compound, the “Gs/cAMP/PKA signaling (phosphorylation of PKA substrates)” value in experiment [3] was “neither STE nor LIN induced Gs/cAMP/PKA signaling”.
LPA 16:0: at GPR3 [2], the “cAMP induction activity (in words)” value is “none of the lysophospholipids that we tested exhibited cAMP induction activity” and the maximum response was determined as 0.5.
In the same order, the values of LPA 18:1 are “none of the lysophospholipids that we tested exhibited cAMP induction activity” and 0.5.
In the same order, the values of LPC 14:0 are “none of the lysophospholipids that we tested exhibited cAMP induction activity” and 1.8.
